Where two headings read alike, the source gives them in different places. Each block holds one compound with its values, some of them ahead of it.
Columns and labels:
[1] = target: T1, Porcn (Mus musculus, UniProt Q9JJJ7); test: Suppression of Wnt signaling in L-Wnt-STF cells; format: cell-based
T1 sequence (Q9JJJ7 1-461): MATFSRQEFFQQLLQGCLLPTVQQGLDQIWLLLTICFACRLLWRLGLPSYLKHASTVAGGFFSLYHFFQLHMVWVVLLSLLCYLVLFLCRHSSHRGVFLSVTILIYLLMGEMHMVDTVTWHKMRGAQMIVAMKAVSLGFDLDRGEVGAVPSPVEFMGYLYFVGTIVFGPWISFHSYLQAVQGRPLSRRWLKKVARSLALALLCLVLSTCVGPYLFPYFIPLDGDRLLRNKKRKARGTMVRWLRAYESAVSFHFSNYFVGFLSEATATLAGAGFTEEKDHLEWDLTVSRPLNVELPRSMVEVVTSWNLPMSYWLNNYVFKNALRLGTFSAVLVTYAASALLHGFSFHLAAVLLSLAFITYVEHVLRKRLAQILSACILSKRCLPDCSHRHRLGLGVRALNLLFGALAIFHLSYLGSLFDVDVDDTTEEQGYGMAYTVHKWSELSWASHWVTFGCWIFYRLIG

[2] = Metabolic stability in murine liver S9 fractions; format: in vitro ADME; conditions: for stability (in words): compared with 6
[3] = Stability in murine plasma; format: in vitro ADME; conditions: compared with 6
[4] = murine plasma; cited from earlier work
[5] = human plasma; cited from earlier work
[6] = target: T1, Porcn; conditions: L-Wnt-STF cells; cited from earlier work
[7] = murine liver S9 fractions; cited from earlier work
[8] = system: Dvl2/3 phosphorylation in HeLa cells; test: Western blot of Dvl2/3 phosphorylation in HeLa cells; format: cell-based; conditions: 24 h incubation
[9] = system: LRP6 phosphorylation in HeLa cells; test: Western blot of LRP6 phosphorylation in HeLa cells; format: cell-based; conditions: 24 h incubation

fold decrease of potency relative to 17 ([1]; L-Wnt-STF cells): 5 fold
SMILES: Cc1ccc2nc(NC(=O)CSc3nc4c(c(=O)n3-c3ccccc3)SCC4)sc2c1 [IWP-2, reference compound]

activity against Wnt signaling ([1]; at low micromolar concentrations): inactive
SMILES: O=C(CSc1nnc(-c2ccncc2)o1)Nc1ccc(-c2cccnc2)cc1 [IWP-L1]

stability (in words) [2]: low stability
stability (in words) [3]: low stability
EC50 [1]: 0.3 nM
SMILES: O=C(CSc1nnc(-c2ccncc2)n1-c1ccccc1)Nc1ccc(-c2cccnc2)cc1 [IWP-L2]

SMILES: O=C(CSc1nc2c(c(=O)n1-c1ccccc1)SCC2)Nc1ccc(-c2ccccc2)cn1 [IWP-L6]
Half-life [4]: <5 min
stability (in words) [5]: good stability
fold more potent than 1 (IWP-2) [6]: 60 fold
Half-life [7]: 26 min

stability (in words) [2]: much more stable
stability (in words) [3]: much more stable
SMILES: O=C(Cn1cc(-c2ccncc2)nn1)Nc1ccc(-c2ccccc2)cn1 [IWP-N3]

degradation after incubation ([2]; 4 h): did not observe any degradation
stability (in words) [2]: much more stable
stability (in words) [3]: much more stable
times more potent than LGK974 ([1]; L-Wnt-STF cells): 2.5 times
SMILES: O=C(Cn1nnc(-c2ccncc2)c1-c1ccccc1)Nc1ccc(-c2ccccc2)cn1 [IWP-O1]
phosphorylation of Dvl2/3 [8]: effectively suppressed
phosphorylation of LRP6 [9]: suppressed

EC50 [1]: 0.2 nM
SMILES: Cc1cc(-c2ncc(CC(=O)Nc3ccc(-c4cnccn4)cn3)cc2C)ccn1 [LGK974, reference compound]

From publication PMC5142825 (Bioorganic & medicinal chemistry letters, 2016)
